ChEMBL document CHEMBL1201862, “PubChem BioAssay data set” (2004)
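Tested at 5 concentrations; 48 h exposure; 96-well plates; endpoints linearly interpolated, else capped at highest concentration. At the GI50, growth is halved.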 Activity calls are given as the source filed them. Cut-off read from the data, not from the text of the source: active = GI50 up to about 1.1 µM and inactive = higher.

What was measured:
Experiment in all cases: NCI anticancer screen, dose series, 48 h
SK-MEL-5 = system: SK-MEL-5
CAKI-1 = system: CAKI-1
NCI-H460 = system: NCI-H460
HT-29 = system: HT-29
HOP-62 = system: HOP-62
HCC 2998 = system: HCC 2998
SW-620 = system: SW-620
KM12 = system: KM12
U-251 = system: U-251
OVCAR-3 = system: OVCAR-3
ACHN = system: ACHN
CCRF-CEM = system: CCRF-CEM
OVCAR-4 = system: OVCAR-4
RPMI-8226 = system: RPMI-8226
SR = system: SR
HOP-92 = system: HOP-92
SF-539 = system: SF-539
HL-60 = system: HL-60
Hs-578T = system: Hs-578T
Malme-3M = system: Malme-3M

Structure (SMILES) | GI50 (SK-MEL-5) | GI50 (CAKI-1) | GI50 (NCI-H460) | GI50 (HT-29) | GI50 (HOP-62) | GI50 (HCC 2998) | GI50 (SW-620) | GI50 (KM12) | GI50 (U-251) | GI50 (OVCAR-3) | GI50 (ACHN) | GI50 (CCRF-CEM) | GI50 (OVCAR-4) | GI50 (RPMI-8226) | GI50 (SR) | GI50 (HOP-92) | GI50 (SF-539) | GI50 (HL-60) | GI50 (Hs-578T) | GI50 (Malme-3M)
COc1ccc(/C=C/C(=O)C(C)(C)C)cc1OC | 54.1 µM (inactive) | 78 µM (inactive) | > 100 µM (inactive) | 62.5 µM (inactive) | > 100 µM (inactive) | > 100 µM (inactive) | 79.4 µM (inactive) | 43.9 µM (inactive) | > 100 µM (inactive) | 64.7 µM (inactive) | > 100 µM (inactive) | 36.2 µM (inactive) | 79.6 µM (inactive) | 47.4 µM (inactive) | – | – | – | – | – | –
Cc1cn(C2CC(n3cc(Cn4ccc(=O)[nH]c4=O)nn3)C(CO)O2)c(=O)[nH]c1=O (stereo not given) | > 100 µM (inactive) | > 100 µM (inactive) | – | – | > 100 µM (inactive) | > 100 µM (inactive) | > 100 µM (inactive) | > 100 µM (inactive) | > 100 µM (inactive) | > 100 µM (inactive) | > 100 µM (inactive) | > 100 µM (inactive) | > 100 µM (inactive) | > 100 µM (inactive) | < 0.01 µM (active) | > 100 µM (inactive) | > 100 µM (inactive) | 95.1 µM (inactive) | > 100 µM (inactive) | –
Cc1ccc(/N=N/C(C2=NC(=O)CS2)c2nc3ccccc3[nH]2)cc1 (stereo not given) | > 100 µM (inactive) | > 100 µM (inactive) | > 100 µM (inactive) | > 100 µM (inactive) | 27.2 µM (inactive) | – | > 100 µM (inactive) | > 100 µM (inactive) | > 100 µM (inactive) | > 100 µM (inactive) | > 100 µM (inactive) | 29.9 µM (inactive) | > 100 µM (inactive) | > 100 µM (inactive) | > 100 µM (inactive) | > 100 µM (inactive) | 54.6 µM (inactive) | > 100 µM (inactive) | – | > 100 µM (inactive)
CC(C)(Br)C(=O)N1CCN(C(c2ccccc2)c2ccccc2)CC1 | 61.4 µM (inactive) | 84.1 µM (inactive) | > 100 µM (inactive) | 39.5 µM (inactive) | 43.5 µM (inactive) | > 100 µM (inactive) | > 100 µM (inactive) | 16.2 µM (inactive) | > 100 µM (inactive) | 19.8 µM (inactive) | > 100 µM (inactive) | 49.2 µM (inactive) | > 100 µM (inactive) | – | 66.2 µM (inactive) | 68.4 µM (inactive) | > 100 µM (inactive) | 21.5 µM (inactive) | 22.6 µM (inactive) | > 100 µM (inactive)
O=C1N=C2N=C(c3ccc(Cl)cc3)N(c3ccc(Cl)cc3)N2Sc2ccccc21 | > 100 µM (inactive) | > 100 µM (inactive) | 81.3 µM (inactive) | > 100 µM (inactive) | 36.1 µM (inactive) | > 100 µM (inactive) | > 100 µM (inactive) | 83.9 µM (inactive) | 23.5 µM (inactive) | > 100 µM (inactive) | > 100 µM (inactive) | > 100 µM (inactive) | > 100 µM (inactive) | > 100 µM (inactive) | – | 86.5 µM (inactive) | > 100 µM (inactive) | > 100 µM (inactive) | – | > 100 µM (inactive)
N#CCCSC(=S)C1CCCC1=N (stereo not given) | > 100 µM (inactive) | > 100 µM (inactive) | > 100 µM (inactive) | > 100 µM (inactive) | > 100 µM (inactive) | – | > 100 µM (inactive) | > 100 µM (inactive) | > 100 µM (inactive) | > 100 µM (inactive) | > 100 µM (inactive) | – | > 100 µM (inactive) | > 100 µM (inactive) | – | > 100 µM (inactive) | > 100 µM (inactive) | > 100 µM (inactive) | > 100 µM (inactive) | > 100 µM (inactive)
COc1ccc(C2=C(N)c3cc(OC)ccc3C2=O)cc1 | > 100 µM (inactive) | > 100 µM (inactive) | > 100 µM (inactive) | > 100 µM (inactive) | > 100 µM (inactive) | > 100 µM (inactive) | > 100 µM (inactive) | 29.2 µM (inactive) | > 100 µM (inactive) | > 100 µM (inactive) | 49.9 µM (inactive) | – | > 100 µM (inactive) | 38.2 µM (inactive) | 23.8 µM (inactive) | > 100 µM (inactive) | > 100 µM (inactive) | > 100 µM (inactive) | 4.25 µM (inactive) | > 100 µM (inactive)
CN1CCC(C(=O)NNc2ccccc2)CC1 | 14.4 µM (inactive) | > 20.6 µM (inactive) | 5.62 µM (inactive) | 7.53 µM (inactive) | 14.3 µM (inactive) | 5.22 µM (inactive) | 7.98 µM (inactive) | 3.15 µM (inactive) | > 17.7 µM (inactive) | 16.9 µM (inactive) | 2.66 µM (inactive) | – | 13.3 µM (inactive) | 24.8 µM (inactive) | 7.43 µM (inactive) | > 100 µM (inactive) | 7.87 µM (inactive) | 2.65 µM (inactive) | – | 22.4 µM (inactive)
